Reference: US5817651A, “3-arylcarbonyl-1-(C-attached-N-heteryl)-1H-indoles” (Sanofi, priority 1997, dated 1998)
Structures can show the parent of a compound that is named as a salt. Where two headings read alike, the source gives them in different places.

Assays:
Format in all cases: in vivo
[1] = system: acetylcholine-induced abdominal constriction; experiment: acetylcholine-induced abdominal constriction test (ACH); conditions: mice; for ED50: Mus musculus
Description: J. Pharmacol. Chemotherap. 32, 295 (1968); a modification of the anti-bradykinin test, which is also a primary analgesic screening procedure, described by Berkowitz et al., J. Pharmacol. Exptl. Therap. 177, 500-508 (1971), Blane et al., J. Pharm. Pharmacol. 19, 367-373 (1967), Botha et al., Eur. J. Pharmacol. 6, 312-321 (1969) and Deffenu et al., J. Pharm. Pharmacol. 18, 135 (1966); and the Randall-Selitto analgesic test described by Randall and Selitto, Arch. Int. Pharmacodyn., 111, 409-419 (1957).
Data in the developing adjuvant arthritis (AA) and plasma fibronectin (FN) assays are expressed as percent inhibition, i.e. inhibition of non-injected paw inflammation (NIP) and injected paw (RPV) and lowering of plasma fibronectin, the asterisks * and ** indicating statistical significance at the p<0.01 and p<0.05 levels, respectively. […] Non-statistically significant results are recorded as "------ ". In the acetylcholine-induced abdominal constriction test, the test compounds were administered either as suspensions in gum tragacanth (GT) or as aqueous solutions prepared by addition of just sufficient dilute aqueous methanesulfonic acid (MS) or dilute aqueous lactic acid (LA) to dissolve the compound. The compounds are identified by the example number above where their preparations are described. All data in the anti-bradykinin, rat writhing and Randall-Selitto tests were obtained on oral administration.

[2] = system: acetic acid-induced writhing; experiment: acetic acid-induced writhing assay in the rat (RW); conditions: for ED50: Rattus norvegicus, po; for RW percent inhibition at dose 30: dose level 30
Description: (§1) Data in the developing adjuvant arthritis (AA) and plasma fibronectin (FN) assays are expressed as percent inhibition, i.e. inhibition of non-injected paw inflammation (NIP) and injected paw (RPV) and lowering of plasma fibronectin, the asterisks * and ** indicating statistical significance at the p<0.01 and p<0.05 levels, respectively. Compounds are considered active at p<0.05 level. Non-statistically significant results are recorded as "------ ". In the acetylcholine-induced abdominal constriction test, the test compounds were administered either as suspensions in gum tragacanth (GT) or as aqueous solutions prepared by addition of just sufficient dilute aqueous methanesulfonic acid (MS) or dilute aqueous lactic acid (LA) to dissolve the compound. The compounds are identified by the example number above where their preparations are described. All data in the anti-bradykinin, rat writhing and Randall-Selitto tests were obtained on oral administration.

[3] = system: adjuvant induced arthritis; experiment: developing adjuvant arthritis (AA) assay; conditions: arthritic rats; printed * = p<0.01, ** = p<0.05
Description: Antirheumatic and anti-inflammatory activities of the compounds of the invention were determined using the developing adjuvant arthritis assay in rats and the plasma fibronectin assay in arthritic rats. The developing adjuvant arthritis assay was used in conjunction with the plasma fibronectin assay as a primary screening method in the evaluation of compounds for potential use as disease modifying anti-rheumatic drugs. The procedure used to induce arthritis in rats is a modification of the methods published by Pearson, J. Chron. Dis. 16, 863-874 (1973) and by Glenn et al., Amer. J. Vet. Res. 1180-1193 (1965). Adjuvant induced arthritis bears many of the traits of rheumatoid arthritis. It is a chronic, progressive, deforming arthritis of the peripheral joints, with a primary mononuclear cell response consisting of bone and joint space invasion by pannus. In order to detect disease modifying anti-rheumatic drug activity, drug treatment is started before the disease has become irrevocably established. Since such drugs are not designed to be administered prophylactically, drug treatment of adjuvant arthritis is initiated at a time when the disease is developing but is not yet irreversible. Animals develop significant systemic arthritic disease which can be measured by swelling of the non-injected rear paw (NIP) 15 to 20 days following an initial injection on day 1 of complete Freund's adjuvant into the right hindfoot paw.
as §1

[4] = Table 9, Examples, no route marked in the cell, read-out: ACH ED50
[5] = iv, Table 9, iv, read-out: ACH ED50 (iv)
[6] = Table 9, Examples, no route marked in the cell

SMILES | ED50 ([2]; oral administration) [mg/kg] | ED50 [1, 4] [mg/kg] | NIP: percent inhibition of non-injected paw inflammation [3] [%] | RPV: percent inhibition of injected paw [3] [%] | also measured
COc1ccc(C(=O)c2c(C)n(C3CCCN(C)C3)c3ccccc23)cc1 (centres unmarked) [2AG(a)] | 9 |  |  |  | ACH ED50 ([1]; Table 9, Examples, no route marked in the cell, listed as 2AG(d)): 22 mg/kg
COc1ccc(C(=O)c2c(C)n(CC3CN(C)CCO3)c3ccccc23)cc1 (centres unmarked) [Example 1A, 1-[(4-methyl-2-morpholinyl)methyl]-2-methyl-3-(4-methoxybenzoyl)-1H-indolehydrochloride] | 3 | 9 |  |  | 
Cc1c(C(=O)c2ccccc2)c2ccccc2n1CC1CN(C)CCO1 (centres unmarked) [Example 1C] | 10 | 21 |  |  | 
Cc1c(C(=O)c2ccccc2F)c2ccccc2n1CC1CN(C)CCO1 (centres unmarked) [Example 1F] | 26 | 22 |  |  | 
COc1ccc(C(=O)c2cn(CC3CCCN(C)C3)c3ccccc23)cc1 (centres unmarked) [Example 1I] | 32 |  | 61 | 19 | ED50 [1, 5]: 5 mg/kg; ACH ED50 (MS) ([1]; Table 9, aqueous solution with dilute methanesulfonic acid (MS)): 38 mg/kg
Cc1c(C(=O)c2ccccc2F)c2ccccc2n1CC1CCCN(C)C1 (centres unmarked) [Example 1J] | 45 | 32 |  |  | 
Cc1c(C(=O)c2ccccc2)c2ccccc2n1CC1CCCN(C)C1 (centres unmarked) [Example 1K] | 40 | 33 | 76 | 50 | 
CCN1CCCC(n2c(C)c(C(=O)c3ccc(OC)cc3)c3ccccc32)C1 (centres unmarked) [Example 2AE] |  | 26 |  |  | RW percent inhibition at dose 30 ([2]; oral): 15%
COc1ccc(C(=O)c2c(C)n(CC3=CCCN(C)C3)c3ccccc23)cc1 [Example 2AF] | 15 | 11 | 93 | 78 | 
COc1ccc(C(=O)c2c(C)n(CC3CCN(C)C3)c3ccccc23)cc1 (centres unmarked) [Example 2AI] | 4 | 11 |  |  | ACH ED50 [1, 6]: 13 mg/kg
Cc1c(C(=O)c2ccccc2F)c2ccccc2n1CC1CCCN1C (centres unmarked) [Example 2AJ] | 6 | 72 | 31 |  | 
COc1ccc(C(=O)c2c(C)n(CCC3CCCCN3C)c3ccccc23)cc1 (centres unmarked) [Example 2G] | 3 | 26 | 93 | 73 | 
COc1ccc(C(=O)c2c(C)n(CC3CCCN(C)C3)c3ccc(F)cc23)cc1 (centres unmarked) [Example 2I] | 5 | 40 | 70 | 51 | 
CCc1c(C(=O)c2ccc(OC)cc2)c2ccccc2n1CC1CCCN(C)C1 (centres unmarked) [Example 2K] | 23 | 16 | 68 | 54 | ED50 [1, 5]: 11 mg/kg; ED50 ([1]; sc, Table 9, sc, read-out: ACH ED50 (sc)): 10 mg/kg
CCN1CCCC(Cn2c(C)c(C(=O)c3ccc(OC)cc3)c3ccccc32)C1 (centres unmarked) [Example 2L] | 2 | 11 |  |  | 
CSc1ccc(C(=O)c2c(C)n(CC3CCCN(C)C3)c3ccccc23)cc1 (centres unmarked) [Example 2O] | 5 | 8 | 65 | 44 | 
COc1ccc(C(=O)c2c(C)n(CC3CN(C)CCN3C)c3ccccc23)cc1 (centres unmarked) [Example 2V] | 15 | 20 |  |  | 
COc1ccc(C(=O)c2c(C)n(C3CCCCN(C)C3)c3ccccc23)cc1 (centres unmarked) [Example 2X] |  | 29 | 43 |  | RW percent inhibition at dose 30 ([2]; oral): 54%; RW percent inhibition at dose 100 ([2]; oral, dose level 100): 82%
COc1ccc(C(=O)c2c(C)n(CC3CSCCN3C)c3ccccc23)cc1 (centres unmarked) [Example 3A, 1-[(4-methyl-3-thiomorpholinyl)methyl]-2-methyl-3-(4-methoxybenzoyl)-1H-indole] | 13 | 33 |  |  | 
COc1ccc(C(=O)c2c(C)n(CC3CCCNC3)c3ccccc23)cc1 (centres unmarked) [Example 4B] | 10 | 15 | 91 | 79 | 
COc1ccc(C(=O)c2c(C)n(CC3CNCCN3)c3ccccc23)cc1 (centres unmarked) [Example 4C] | 20 | 22 |  |  | 
CC(C1CCCN(C)C1)n1cc(C(=O)c2ccccc2F)c2ccccc21 (centres unmarked) [Example 4F] | 6 | 24 | 45 | 27 | 
CC(C1CCCN(C)C1)n1cc(C(=O)c2ccccc2F)c2ccccc21 (centres unmarked) [Example 4G] |  |  |  |  | ACH ED50 [1, 6]: 19 mg/kg; RW ED50 ([2]; oral administration): 7 mg/kg
CC(C1CCCNC1)n1cc(C(=O)c2ccccc2F)c2ccccc21 (centres unmarked) [Example 4H] | 4 |  |  |  | ACH ED50 [1, 6]: 25 mg/kg
COc1ccc(C(=O)c2c(C)n(CC3(O)CCN(C)CC3)c3ccccc23)cc1 [Example 5, 2-methyl-3-(4-methoxybenzoyl)-1-[(1-methyl-4-hydroxy-4-piperidinyl)methyl]-1H-indole] | 9.1 | 23 |  |  | 
Cc1c(C(=O)c2ccc([S+](C)[O-])cc2)c2ccccc2n1CC1CCCN(C)C1.Cl (centres unmarked) [Example 6A, 1-[(1-methyl-3-piperidinyl)methyl]-2-methyl-3-(4-methylsulfinylbenzoyl)-1H-indole hydrochloride] | 5 | 9 | 93 | 81 | 
COc1ccc(C(=O)c2c(C)n(CC3CCCN3)c3ccccc23)cc1.Cl (centres unmarked) [Example 8A, 2-methyl-3-(4-methoxybenzoyl)-1-[(2-pyrrolidinyl)methyl]-1H-indole hydrochloride] | 25 | 41 |  |  | 
Cc1c(C(=O)c2ccc(N)cc2)c2ccccc2n1CC1CCCN(C)C1 (centres unmarked) [Example 9, 2-methyl-3-(4-aminobenzoyl)-1-[(1-methyl-3-piperidinyl)methyl]-1H-indole hydrochloride hemihydrate] | 9 | 12 |  |  | 
